Marks after values point to notes of the source that are not given here.
Columns and labels:
[1] = test system: HFD-induced NASH (mild NASH model), male C57BL/6J mice; assay: Serum biochemical analysis, mild NASH model (12 week HFD prior to dosing); format: in vivo; settings: for ALT / AST / Cholesterol / HDL Cholesterol / LDL Cholesterol / Triglycerides: serum, 12 week HFD prior to dosing, 5 weeks, mean ± SE
Method: (§1) All animal care and experimental procedures were approved by the Ethical Committee on Animal Care and Experimentation. Male C57BL/6J mice were purchased at 6 weeks of age from the Jackson Laboratory and housed in a controlled environment (12 h light/dark cycle, 21±2° C., humidity 50±10%). Mice were permitted ad libitum access to water and either 10 kcal % fat control diet (CD, Cat #D09100304, Research Diets) or 40 kcal % fat, 20 kcal % fructose and 2% cholesterol high fat diet (HFD, Cat #D09100310, Research Diets).
To test the preventative effect of CGS-ANG in treating HFD-induced NASH, mice were fed high fat diet (HFD) or low fat diet (CD) for 12 weeks (mild NASH model) and then randomly assigned to 9 groups with 8-10 mice per group before treatment: (1), CD: mice fed the CD diet and treated with vehicle; (2), HFD: mice fed the HFD diet and treated with vehicle; (3), CGS-D1: mice fed the HFD diet and treated with 10 μg/kg of CGS26214 (suspended in saline with 1% DMSO); (4), CGS-D2: mice fed the HFD diet and treated with 20 μg/kg of CGS26214; (5) CGS-D3: mice fed the HFD diet and treated with 60 μg/kg of CGS26214; (6) CNG-D1: mice fed the HFD diet and treated with CGS-ANG loaded with CGS26214 at a dose of 10 μg/kg; (7) CNG-D2: mice fed the HFD diet and treated with CGS-ANG loaded with CGS26214 at a dose of 20 μg/kg; (8) CNG-D3: mice fed the HFD diet and treated with CGS-ANG loaded with CGS 26214 at a dose of 60 μg/kg; (9) BNG: mice fed the HFD diet and treated with BNG with the same dose of nanogels with group (8). All the treatments were injected intraperitoneally at the doses indicated once per day before the dark cycle of the day for 5 weeks.
(§2) After each designated treatment period, all the mice were sacrificed unfasted by cardiac puncture after gradual-fill CO2 asphyxiation. Terminal blood samples were collected in SST-SERUM separator tubes for serum collection. Epididymal fat pads (EFP), liver and hearts were removed and weighed. Data (weight gain, liver weight, heart weight, epididymal fat pad weight) from the 12 week and 24 week study are shown in FIGS. 3A-3D and 4A-4D, respectively. Portions of livers and hearts were collected and stored at −80° C. or fixed in 4% paraformaldehyde solution (Sigma-Aldrich, St. Louis, MO) for further analysis. Visual images of mice from each treatment groups at 24 weeks is shown in FIG. 5 while images of mice liver from each treatment group at 24 weeks is shown in FIG. 6.
(§3) Analysis of serum cholesterol (TC), high-density lipoprotein cholesterol (HDL-C), low-density lipoprotein cholesterol (LDL-C), triglycerides (TG), serum alanine aminotransferase (ALT) and aspartate aminotransferase (AST) was performed at Indexx BioAnalytics (North Grafton, MA) Plasma glucose, insulin, amyloid A (SAA), E-selectin and monocyte chemoattractant protein-1 (MCP-1) were quantified using commercial kits. Data from the 12 week and 24 week study are shown in Table 2 and Table 3, respectively.

[2] = test system: HFD-induced NASH (fully developed NASH model), male C57BL/6J mice; assay: Serum biochemical analysis, fully developed NASH model (24 week HFD prior to dosing); format: in vivo; settings: 5 weeks, mean ± SE
Method: as §1
(§4) To test the therapeutic effect of CGS-ANG in treating HFD-induced NASH, mice were fed HFD or LFD for 24 weeks (fully developed NASH model) and then randomly assigned to 9 groups with 8-10 mice per group before the medical treatments: (1), CD: mice fed the CD diet and treated with vehicle; (2), HFD: mice fed the HFD diet and treated with vehicle; (3), CGS-D1: mice fed the HFD diet and treated with 5 μg/kg of CGS26214; (4), CGS-D2: mice fed the HFD diet and treated with 10 μg/kg of CGS26214; (5) CGS-D3: mice fed the HFD diet and treated with 20 μg/kg of CGS 26214; (6) CNG-D1: mice fed the HFD diet and treated with CGS-ANG loaded with CGS26214 at a dose of 5 μg/kg; (7) CNG-D2: mice fed the HFD diet and treated with CGS-ANG loaded with CGS 26214 at a dose of 10 μg/kg; (8) CNG-D3: mice fed the HFD diet and treated with CGS-ANG loaded with CGS 26214 at a dose of 20 μg/kg; (9) BNG: mice fed the HFD diet and treated with BNG with the same dose of nanogels as group (8). All the treatments were injected intraperitoneally at the doses indicated once per day before the dark cycle of the day for 5 weeks.
as §2, §3

[3] = Body weight and liver weight in the 12 week and 24 week HFD NASH models; format: in vivo, mice; settings: the two models (12 week and 24 week HFD), i.p. once per day, 5 weeks
Method: as §1, with “Diets). […]” for “Diets).”
Body weight and food intake per cage were measured regularly during the study. […]

[4] = test system: HFD-induced NASH, mouse liver; assay: Liver histology (H&E, Masson's trichrome), 24 week study; format: in vivo, mice; settings: groups CGS-2 / CNG-2 (10 μg/kg CGS26214 i.p. once per day, 5 weeks)
Method: as §4, with “weeks. […]” for “weeks.”

[5] = test system: Diet Induced Obese (DIO) mice; assay: In vivo serum T4 and TSH analysis in Diet Induced Obese mice; settings: 5, 10 or 20 μg/kg, 12-week and 24-week timepoints, compared to lean control and high fat control
Method: A Diet Induced Obese (DIO) mouse model was used to study the in vivo effects of the CGS26214-encapsulated nanogels with anionic group-modified backbone (CGS-ANG), referred to as “CYTA-001,” on serum T4 and TSH within the context of obesity.
The DIO mice were treated with either the non-liver targeted TRβ agonist, Axitirome (CGS26214), also referred to as “drug” in FIGS. 10A and B, or CYTA-001 at 5 μg/kg, 10 μg/kg, or 20 μg/kg for 12 weeks or 24 weeks. Treated DIO mice serum T4/TSH levels were compared to a lean control (LC control), or low fat diet, and to a high fat control (HF control). After each designated treatment period, all the mice were sacrificed unfasted by cardiac puncture after gradual-fill CO2 asphyxiation. Terminal blood samples were collected in SST-SERUM separator tubes for serum collection.
Serum was analyzed for thyroid hormone T4 and thyroid stimulating hormone (TSH) levels. […] This is an unexpected result as thyromimetics have not been observed for weight loss without some level of peripheral activation of the TRα or TRβ receptor. Peripheral activation of the TRα receptor is generally toxic and ideally avoided.

[6] = test system: Diet Induced Obese (DIO) mice; assay: In vivo insulin resistance analysis (HOMA-IR) in DIO mice; settings: 24 weeks HFD then 5-week dosing at 5, 10 or 20 μg/kg
Method: DIO mice were used to study the in vivo effects of CYTA-001 on insulin resistance within the context of obesity and diet. Homeostatic model assessment for insulin resistance (HOMA-IR) levels were measured in DIO mice that were conditioned on high fat diets (HFD) for 24 weeks prior to a 5-week dosing regimen. The HFD DIO mice were treated with either the non-liver targeted TRβ agonist, Axitirome (CGS26214), also referred to as “drug” in FIG. 11, or CYTA-001 at 5 μg/kg, 10 μg/kg, or 20 μg/kg dosages for 5 weeks.

[7] = 10 μg/kg CGS26214 i.p. once per day
[8] = 20 μg/kg CGS26214 i.p. once per day
[9] = 60 μg/kg CGS26214 i.p. once per day
[10] = 5 μg/kg CGS26214 i.p. once per day

CCOC(=O)C(=O)Nc1cc(C)c(Oc2ccc(O)c(C(O)c3ccc(F)cc3)c2)c(C)c1 (racemic) [CGS26214, ethyl (+−)-((4-(3-((4-fluorophenyl)hydroxymethyl)-4-hydroxyphenoxy)-3,5-dimethylphenyl)amino)oxoacetate]
ALT [1, 7]: 196 ± 26
AST [1, 7]: 205 ± 27
Cholesterol [1, 7]: 158.2 ± 19.2 mg/dL
HDL Cholesterol [1, 7]: 87.2 ± 9.6 mg/dL
LDL Cholesterol [1, 7]: <7 mg/dL
Triglycerides [1, 7]: 87.6 ± 3.5 mg/dL
ALT [1, 8]: 217 ± 28
AST [1, 8]: 252 ± 47
Cholesterol [1, 8]: 155.8 ± 11.8 mg/dL
HDL Cholesterol [1, 8]: 76.8 ± 5.8 mg/dL
LDL Cholesterol [1, 8]: <7 mg/dL
Triglycerides [1, 8]: 83.5 ± 10 mg/dL
ALT [1, 9]: 279 ± 68
AST [1, 9]: 303 ± 49
Cholesterol [1, 9]: 105.5 ± 23.7 mg/dL
HDL Cholesterol [1, 9]: 53.1 ± 10.8 mg/dL
LDL Cholesterol [1, 9]: <7 mg/dL
Triglycerides [1, 9]: 78.7 ± 7.2 mg/dL
reversing or preventing changes in biochemical markers induced by the high-fat diet ([1]; summary of Tables 2 and 3 (12 week and 24 week models), compared with LC control): much less effective
ALT [2, 10]: 276 ± 20^d
AST [2, 10]: 319 ± 15^ceg
Cholesterol [2, 10]: 278.9 ± 20.2^cef mg/dL
LDL Cholesterol [2, 10]: 18.4 ± 2.3 mg/dL
ALT [2, 7]: 257 ± 20^cd
Cholesterol [2, 7]: 236.8 ± 16.6^cd mg/dL
HDL Cholesterol [2, 7]: 113.4 ± 5.5^ab mg/dL
LDL Cholesterol [2, 7]: 15.3 ± 1.1 mg/dL
Triglycerides [2, 7]: 94.7 ± 9.5^cdf mg/dL
ALT [2, 8]: 225 ± 10^cd
AST [2, 8]: 247 ± 17^de
Cholesterol [2, 8]: 196.9 ± 10.2^ade mg/dL
HDL Cholesterol [2, 8]: 96.3 ± 3.9^ac mg/dL
LDL Cholesterol [2, 8]: 11.4 ± 1.2 mg/dL
Triglycerides [2, 8]: 90.3 ± 5.7^ad mg/dL
effects on body weight [3]: only moderate effects
effects on liver weight [3]: only moderate effects
fibrosis and collagen deposition (Masson's trichrome staining) [4]: show signs of fibrosis and collagenous tissue fiber formation
steatosis, inflammation and ballooning degeneration (hematoxylin-eosin staining) [4]: show macrovesicular and microvesicular steatosis, inflammation, and ballooning degeneration
change in serum TSH [5]: statistically significant change
insulin resistance (HOMA-IR) [6]: not observed to produce a significant effect
